{"source": "patent US5759836A", "about": "“Osteoarthritis-associated inducable isoform of nitric oxide synthetase” (priority 1995, dated 1998)", "key": {"iNOS [1]": {"tested_on": "iNOS", "test": "In vitro iNOS catalytic activity in cell-free extracts preincubated with drug (L-[3H]-arginine to L-[3H]-citrulline)", "assay_type": "biochemical, murine", "settings": "20 min preincubation"}, "NF-κB": {"tested_on": "NF-κB", "settings": "cited from earlier work"}, "OA-NOS [2]": {"tested_on": "OA-NOS", "test": "Nitrite release by OA-affected articular cartilage, ex vivo organ culture", "assay_type": "cell-based, human"}, "OA-NOS [3]": {"tested_on": "OA-NOS", "test": "Sensitivity of OA-NOS to agents (Table 3 comparison)"}, "COX-2": {"molecular_target": "T1, COX-2 (Mus musculus, UniProt Q05769)", "T1 construct": "Cells were incubated with LPS (1 μg/ml) for 16 h to induce COX-2; endogenous in cells; host or cells: RAW 264.7 murine macrophages, LPS-induced", "T1 sequence (Q05769 18-604)": "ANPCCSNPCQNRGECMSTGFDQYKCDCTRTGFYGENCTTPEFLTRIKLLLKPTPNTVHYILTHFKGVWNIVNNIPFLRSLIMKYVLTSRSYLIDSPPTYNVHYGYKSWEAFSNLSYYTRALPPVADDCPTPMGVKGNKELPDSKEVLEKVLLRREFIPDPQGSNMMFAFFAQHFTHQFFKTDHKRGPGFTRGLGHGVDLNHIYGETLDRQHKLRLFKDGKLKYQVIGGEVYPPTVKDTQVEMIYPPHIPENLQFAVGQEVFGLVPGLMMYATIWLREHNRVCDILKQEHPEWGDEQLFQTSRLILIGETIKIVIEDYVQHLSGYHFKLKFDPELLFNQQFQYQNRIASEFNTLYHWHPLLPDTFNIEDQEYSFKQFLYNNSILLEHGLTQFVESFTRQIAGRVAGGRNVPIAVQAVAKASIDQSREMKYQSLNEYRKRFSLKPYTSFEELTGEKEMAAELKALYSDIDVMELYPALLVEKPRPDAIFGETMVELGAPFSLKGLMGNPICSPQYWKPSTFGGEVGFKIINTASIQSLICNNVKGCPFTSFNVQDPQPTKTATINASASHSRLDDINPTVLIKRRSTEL", "assay_type": "cell-based, murine", "settings": "3 mM"}, "iNOS [4]": {"tested_on": "iNOS", "test": "iNOS protein expression, Western blot, LPS-treated RAW 264.7 cells", "assay_type": "cell-based, murine", "procedure": "Western Blot Analysis. Equal amounts of protein (50 μg) estimated by BCA reagent (Pierce, Rockford, Ill.) were loaded onto SDS-PAGE gels and stained to verify the concentrations of various protein fractions by examining the intensities of the protein bands on the gels. Western blot analysis was carried out from the same cell extracts. The Western-blotted membrane was probed with a specific anti-iNOS monoclonal antibody, as specified by Transduction Laboratories (Lexington, Ky.). The blots were developed using the ECL Western blot system (Amersham, Arlington Heights, Ill.). Quantitation of the bands was performed using a densitometer from Molecular Dynamics (Sunnyville, Calif.).\nThe protein expression data are represented as\nND = not done. NS = not significant.\nA Western blot analysis of iNOS protein was carried out in cells treated with […] LPS in the presence and absence of NSAIDs for 16-18 h."}, "iNOS [5]": {"tested_on": "iNOS", "test": "Radiolabelling of iNOS by acetyl-labelled aspirin in RAW 264.7 cells, SDS-PAGE", "assay_type": "biochemical, murine", "settings": "radiolabelled aspirin, 30 minutes", "procedure": "Unstimulated and LPS stimulated murine macrophage (RAW 264.7) cells were incubated with radiolabelled aspirin (acetyl group labelled) as described by Lecomte et al. (J. Biol. Chem. 269:13207-13215, 1994). After 30 minutes, the extracts were run on an SDS-PAGE gel and analyzed by phosphoimager. […] The intensity of label (^14 C) is increased, where iNOS synthesis was induced by LPS.\nHowever, the possibility that inhibition of iNOS catalytic activity may be due to acetylation of cofactors/precursors of iNOS has not been ruled out."}, "iNOS [6]": {"tested_on": "iNOS", "test": "Specific activity of iNOS in cell-free extracts of RAW 264.7 cells exposed to drug during LPS induction", "assay_type": "cell-based, murine", "procedure": "Assays for iNOS in Cell-Free Extracts. […] The reaction mixture for iNOS assay (in cell-free extracts) consists of Tris […] (pH 7.8); BSA 1 mg/ml; DTT 1 mM; CaCl2, 2 mM; FAD 10 μM; BH4 10 μM; L-arginine 30 μM; NADPH 1 mM. The assay mixture for cNOS consists of Tris 50 mM (pH 7.8); L-arginine 50 μM; calmodulin 10 μg/ml; BH4 10 μM; CaCl2 2 mM; NADPH 100 μM. RAW 264.7 cells were induced with LPS in the presence and absence of NSAIDs for 16-18 h. […] Cells were re-pelleted at 4° C. and resuspended in Tris buffer (10 mM, pH 7.4) containing 1 mg/ml each chymostatin, antipain, leupeptin and pepstatin, 1 mM DTT and 1 mM PMSF. Cells were lysed in a Polytron PT 1200 homogenizer (Kinematica AG, Switzerland) after 3 cycles of rapid freeze-thawing. The lysate was centrifuged at 16,000 rpm for 60 min at 4° C., and the supernatants were used as cell-free extracts. […] After 20 min the assays were terminated by heating the reaction mixture at 90° C. for 5 min. The precipitates were removed by centrifuging at 15,000 rpm for 20 min. Ten microliters (≈50,000 cpm) of the supernatant was spotted on activated Avicel TLC plates (Analtech, Newark, Del.). The TLC plates were developed in a solvent system consisting of ethanol:water:ammonia (80:16:4). Quantitation of the spot for L-[^3 3H]-citrulline was performed by a Bioscan System 200 Imaging Scanner. A phosphoimager can also be used for such quantification.\nThe specific activity of iNOS was determined in cellfre\nextracts at a given time period as described. The nitrite and specific"}, "COX": {"tested_on": "COX", "settings": "cited from earlier work"}}, "note": "Several values for one entry are separate records, joined by “and”; a condition that tells them apart may be missing. Identical values can stand only once. Entries after “also recorded” stand apart in the source; their conditions may differ.", "data": [{"smiles": "CC(=O)Oc1ccccc1C(=O)O", "note": "[Aspirin, aspirin]", "values": [{"measurement": "inhibition of iNOS catalytic activity in cell-free extracts", "setting": "iNOS [1]; 0.1 mM", "result": "10-12%"}, {"measurement": "inhibition of iNOS catalytic activity in cell-free extracts (specific activity in in vitro assay)", "setting": "iNOS [1]; 1 mM", "result": "~ 45% and 45-68%"}, {"measurement": "activation of NF-κB", "setting": "NF-κB; 5-20 mM, suprapharmacological", "result": "interfere in the activation of NF-κB"}, {"measurement": "NF-κB-dependent transcription", "setting": "NF-κB; aspirin 3 mM, sodium salicylate 5 mM, luciferase reporter", "result": "inhibit NF-κB-dependent transcription"}, {"measurement": "NF-κB activation, gel shift assays", "setting": "NF-κB; same concentrations (aspirin 3 mM; sodium salicylate 5 mM)", "result": "no significant effect on NF-κB activation"}, {"measurement": "effect on nitrite accumulation / NOS expression in OA cartilage", "setting": "OA-NOS [2]", "result": "blocked iNOS expression in OA cartilage"}, {"measurement": "rank order of inhibition of spontaneous nitrite accumulation", "setting": "OA-NOS [2]", "result": "aspirin>indomethacin>sodium salicylate"}, {"measurement": "inhibition at 2000 µM", "setting": "OA-NOS [2]; 2 mM, human osteoarthritic cartilage ex vivo, read-out: suppression of accumulation of nitrites", "result": "≥ 50", "unit": "%"}, {"measurement": "sensitivity of OA-NOS", "setting": "OA-NOS [3]", "result": "blocked; also recorded: shows sensitivity"}, {"measurement": "% inhibition of COX-2 specific activity", "setting": "COX-2", "result": "> 75", "unit": "%"}, {"measurement": "decrease of iNOS expression", "setting": "iNOS [4]; 10 mM, Western blot, 10000 µM", "result": "~ 70%"}, {"measurement": "effect on iNOS expression, Western blot", "setting": "iNOS [4]; LPS, 16-18 h, indomethacin 5 μM", "result": "significant decrease in the expression of iNOS"}, {"measurement": "inhibition at 10000 µM", "setting": "iNOS [4]; Mus musculus, RAW264.7, read-out: decrease of iNOS expression, 10 mM, Western blot", "result": 69, "unit": "%"}, {"measurement": "inhibition at 3000 µM", "setting": "iNOS [4]; Mus musculus, RAW264.7, read-out: inhibition of iNOS protein expression, 3 mM, approximate, densitometry", "result": "~53", "unit": "%"}, {"measurement": "acetylation of iNOS", "setting": "iNOS [5]", "result": "shows acetylation of iNOS"}, {"measurement": "Specific activity of iNOS", "setting": "iNOS [6]; 1 mM", "result": "271.7 ± 17.2", "unit": "pmol/min/mg protein"}, {"measurement": "Specific activity of iNOS", "setting": "iNOS [6]; 2 mM", "result": "231.3 ± 29.8", "unit": "pmol/min/mg protein"}, {"measurement": "Specific activity of iNOS", "setting": "iNOS [6]; 3 mM", "result": "162.3 ± 25.9", "unit": "pmol/min/mg protein"}, {"measurement": "Specific activity, % inhibition", "setting": "iNOS [6]; 3 mM, cell-free extracts, 16 h", "result": 47, "unit": "%"}, {"measurement": "inhibition at 3000 µM", "setting": "iNOS [6]; Mus musculus, RAW264.7, 16 h, read-out: Specific activity, % inhibition, 3 mM, cell-free extracts, 16 h", "result": 48, "unit": "%"}, {"measurement": "IC50", "setting": "iNOS [6]; Mus musculus, RAW264.7, read-out: IC50, specific enzyme activity of iNOS", "result": 3000, "unit": "µM"}, {"measurement": "inhibition at 1000 µM", "setting": "iNOS [6]; Mus musculus, RAW264.7, read-out: Specific activity, % inhibition, 1 mM", "result": 12, "unit": "%"}, {"measurement": "inhibition at 2000 µM", "setting": "iNOS [6]; Mus musculus, RAW264.7, read-out: Specific activity, % inhibition, 2 mM", "result": 25, "unit": "%"}, {"measurement": "COX inhibition", "setting": "COX", "result": "an effective inhibitor of COX"}, {"measurement": "cyclooxygenase and peroxidase activity of COX", "setting": "COX", "result": "inactivates the cyclooxygenase and not the peroxidase activity"}]}]}
